Assay results taken from PubChem BioAssay AID2060484 (Molecular Pharmacology Branch, DTP, NCI, 2025).

Tested on: SUM149PT spheroids with HUVEC/MSC, viability
Experiment: Anticancer human tumor SUM149PT cell line growth inhibition [GQUAD];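 note: spheroids exposed to drugs for seven days before readout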;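 for viability, T/C: percent viability relative to DMSO vehicle control taken as 100%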
Details: for IC50: curve of first compound; for viability, T/C: stronger effect = lower value
Procedure, shortened: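 Multi-cell-type spheroids of tumor cells with HUVEC and mesenchymal stem cells, treated with drug combinations. Concentrations descend in half-log steps from near clinical Cmax, or from 10 microM where Cmax is unknown; viability read-out.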

[1] = second compound 0.0316 µM, first compound 0.0316 µM
[2] = second compound 0.0316 µM, first compound 0.1 µM
[3] = second compound 0.0316 µM, first compound 0.316 µM
[4] = second compound 0.0316 µM, first compound 1 µM
[5] = second compound 0.0316 µM, first compound 3.16 µM
[6] = second compound 0.0316 µM, first compound 10 µM
[7] = second compound 0.1 µM, first compound 0.0316 µM
[8] = second compound 0.1 µM, first compound 0.1 µM
[9] = second compound 0.1 µM, first compound 0.316 µM
[10] = second compound 0.1 µM, first compound 1 µM
[11] = second compound 0.1 µM, first compound 3.16 µM
[12] = second compound 0.1 µM, first compound 10 µM
[13] = second compound 0.316 µM, first compound 0.0316 µM
[14] = second compound 0.316 µM, first compound 0.1 µM
[15] = second compound 0.316 µM, first compound 0.316 µM
[16] = second compound 0.316 µM, first compound 1 µM
[17] = second compound 0.316 µM, first compound 3.16 µM
[18] = second compound 0.316 µM, first compound 10 µM
[19] = second compound 1 µM, first compound 0.0316 µM
[20] = second compound 1 µM, first compound 0.1 µM
[21] = second compound 1 µM, first compound 0.316 µM
[22] = second compound 1 µM, first compound 1 µM
[23] = second compound 1 µM, first compound 3.16 µM
[24] = second compound 1 µM, first compound 10 µM
[25] = second compound 3.16 µM, first compound 0.0316 µM
[26] = second compound 3.16 µM, first compound 0.1 µM
[27] = second compound 3.16 µM, first compound 0.316 µM
[28] = second compound 3.16 µM, first compound 1 µM
[29] = second compound 3.16 µM, first compound 3.16 µM
[30] = second compound 3.16 µM, first compound 10 µM
[31] = second compound 10 µM, first compound 0.0316 µM
[32] = second compound 10 µM, first compound 0.1 µM
[33] = second compound 10 µM, first compound 0.316 µM
[34] = second compound 10 µM, first compound 1 µM
[35] = second compound 10 µM, first compound 3.16 µM
[36] = second compound 10 µM, first compound 10 µM

SMILES: CC(=O)O[C@H]1C(=O)[C@@]2(C)[C@H]([C@H](OC(=O)c3ccccc3)[C@]3(O)C[C@H](OC(=O)[C@H](O)[C@@H](NC(=O)c4ccccc4)c4ccccc4)C(C)=C1C3(C)C)[C@]1(OC(C)=O)CO[C@@H]1C[C@@H]2O + Cc1[nH]c2ccc(F)cc2c1-c1nc2c3cccnc3c3ncccc3c2[nH]1
- IC50 (second compound 0.0316 µM): < 31.6 nM
- IC50 (second compound 0.1 µM): < 31.6 nM
- IC50 (second compound 0.316 µM): < 31.6 nM
- IC50 (second compound 1 µM): < 31.6 nM
- IC50 (second compound 3.16 µM): < 31.6 nM
- IC50 (second compound 10 µM): < 31.6 nM
- viability, T/C [1]: 31.7%
- viability, T/C [2]: 25.7%
- viability, T/C [3]: 21.3%
- viability, T/C [4]: 19.2%
- viability, T/C [5]: 19%
- viability, T/C [6]: 23.1%
- viability, T/C [7]: 34.9%
- viability, T/C [8]: 24.9%
- viability, T/C [9]: 22.7%
- viability, T/C [10]: 19.7%
- viability, T/C [11]: 19.3%
- viability, T/C [12]: 25.8%
- viability, T/C [13]: 32.2%
- viability, T/C [14]: 25.7%
- viability, T/C [15]: 24.2%
- viability, T/C [16]: 18.9%
- viability, T/C [17]: 20.8%
- viability, T/C [18]: 26.5%
- viability, T/C [19]: 30.2%
- viability, T/C [20]: 27.2%
- viability, T/C [21]: 23.1%
- viability, T/C [22]: 17.3%
- viability, T/C [23]: 21.5%
- viability, T/C [24]: 26.6%
- viability, T/C [25]: 29.8%
- viability, T/C [26]: 28.6%
- viability, T/C [27]: 21.5%
- viability, T/C [28]: 18%
- viability, T/C [29]: 20.5%
- viability, T/C [30]: 22.9%
- viability, T/C [31]: 28.5%
- viability, T/C [32]: 24.9%
- viability, T/C [33]: 20.2%
- viability, T/C [34]: 20.7%
- viability, T/C [35]: 22.3%
- viability, T/C [36]: 23.1%

SMILES: Cn1ncnc1[C@H]1c2n[nH]c(=O)c3cc(F)cc(c23)N[C@@H]1c1ccc(F)cc1 + Cc1[nH]c2ccc(F)cc2c1-c1nc2c3cccnc3c3ncccc3c2[nH]1
- IC50 (second compound 0.0316 µM): > 316 nM
- IC50 (second compound 0.1 µM): > 316 nM
- IC50 (second compound 0.316 µM): 305 nM
- IC50 (second compound 1 µM): > 316 nM
- IC50 (second compound 3.16 µM): > 316 nM
- IC50 (second compound 10 µM): > 316 nM
- viability, T/C (second compound 0.0316 µM, first compound 0.000999 µM): 105%
- viability, T/C (second compound 0.0316 µM, first compound 0.00316 µM): 93.4%
- viability, T/C (second compound 0.0316 µM, first compound 0.00999 µM): 103%
- viability, T/C [1]: 88%
- viability, T/C (second compound 0.0316 µM, first compound 0.0999 µM): 69.8%
- viability, T/C [3]: 57.3%
- viability, T/C (second compound 0.1 µM, first compound 0.000999 µM): 90.4%
- viability, T/C (second compound 0.1 µM, first compound 0.00316 µM): 96.2%
- viability, T/C (second compound 0.1 µM, first compound 0.00999 µM): 87.6%
- viability, T/C [7]: 86.9%
- viability, T/C (second compound 0.1 µM, first compound 0.0999 µM): 73.2%
- viability, T/C [9]: 56.7%
- viability, T/C (second compound 0.316 µM, first compound 0.000999 µM): 109%
- viability, T/C (second compound 0.316 µM, first compound 0.00316 µM): 90.3%
- viability, T/C (second compound 0.316 µM, first compound 0.00999 µM): 95.2%
- viability, T/C [13]: 89.8%
- viability, T/C (second compound 0.316 µM, first compound 0.0999 µM): 65.4%
- viability, T/C [15]: 50%
- viability, T/C (second compound 1 µM, first compound 0.000999 µM): 94.6%
- viability, T/C (second compound 1 µM, first compound 0.00316 µM): 94.5%
- viability, T/C (second compound 1 µM, first compound 0.00999 µM): 96.3%
- viability, T/C [19]: 88%
- viability, T/C (second compound 1 µM, first compound 0.0999 µM): 66%
- viability, T/C [21]: 51%
- viability, T/C (second compound 3.16 µM, first compound 0.000999 µM): 88.6%
- viability, T/C (second compound 3.16 µM, first compound 0.00316 µM): 90.4%
- viability, T/C (second compound 3.16 µM, first compound 0.00999 µM): 96.2%
- viability, T/C [25]: 78%
- viability, T/C (second compound 3.16 µM, first compound 0.0999 µM): 67.7%
- viability, T/C [27]: 50%
- viability, T/C (second compound 10 µM, first compound 0.000999 µM): 85.3%
- viability, T/C (second compound 10 µM, first compound 0.00316 µM): 77.7%
- viability, T/C (second compound 10 µM, first compound 0.00999 µM): 88.8%
- viability, T/C [31]: 81.8%
- viability, T/C (second compound 10 µM, first compound 0.0999 µM): 65.4%
- viability, T/C [33]: 50.9%

SMILES: COc1cccc2c1C(=O)c1c(O)c3c(c(O)c1C2=O)CC(O)(C(=O)CO)CC3OC1CC(N)C(O)C(C)O1 (stereo unspecified) + Cc1[nH]c2ccc(F)cc2c1-c1nc2c3cccnc3c3ncccc3c2[nH]1
- IC50 (second compound 0.0316 µM): 204 nM
- IC50 (second compound 0.1 µM): 203 nM
- IC50 (second compound 0.316 µM): 190 nM
- IC50 (second compound 1 µM): 201 nM
- IC50 (second compound 3.16 µM): 171 nM
- IC50 (second compound 10 µM): 145 nM
- viability, T/C [1]: 91.3%
- viability, T/C [2]: 62.5%
- viability, T/C [3]: 44.3%
- viability, T/C [4]: 19.1%
- viability, T/C [5]: 2.87%
- viability, T/C [6]: 0.48%
- viability, T/C [7]: 91.1%
- viability, T/C [8]: 62.1%
- viability, T/C [9]: 45.2%
- viability, T/C [10]: 16.8%
- viability, T/C [11]: 2.57%
- viability, T/C [12]: 1.39%
- viability, T/C [13]: 84.3%
- viability, T/C [14]: 60.2%
- viability, T/C [15]: 43%
- viability, T/C [16]: 18.9%
- viability, T/C [17]: 3.58%
- viability, T/C [18]: 1.15%
- viability, T/C [19]: 94.7%
- viability, T/C [20]: 61.9%
- viability, T/C [21]: 44.7%
- viability, T/C [22]: 19.4%
- viability, T/C [23]: 2.12%
- viability, T/C [24]: 1.25%
- viability, T/C [25]: 82.6%
- viability, T/C [26]: 58.5%
- viability, T/C [27]: 40.8%
- viability, T/C [28]: 16.7%
- viability, T/C [29]: 4.43%
- viability, T/C [30]: 1.38%
- viability, T/C [31]: 90.3%
- viability, T/C [32]: 54%
- viability, T/C [33]: 39.5%
- viability, T/C [34]: 15.7%
- viability, T/C [35]: 3.44%
- viability, T/C [36]: 0.4%
